Measurements as given in patent US8044067B2, “Isoquinolines as IGF-1R inhibitors” (Analytecon S.A., priority 2005, dated 2011).

Experiments:
[1] = tested on: insulin receptor substrate 1 (IRS-1); assay: Inhibition of the phosphorylation of insulin receptor substrate 1 (IRS-1) in MF-55 cells; assay type: cell-based; conditions: MF-55 cells (malignant melanoma), 100 ng/ml for one hour, IGF-1 50 ng/ml for 5 minutes
Protocol: MF-55 cells (malignant melanoma) were starved for 20 hours, after which half of the cell mass was incubated with racemic compound 15 (100 ng/ml) for one hour. After activation with IGF-1 (50 ng/ml) for 5 minutes, the two cell samples were lyzed in a special buffer (Upstate Ltd., Dundee, UK) that disrupts the cell membrane as well as the nucleus envelope. After removal of cell debris by centrifugation, the supernatants were analyzed for phosphorylated IRS-1 by Upstate Ltd. The presence of racemic compound 15 lowered the amount of phosphorylated IRS-1 with 20% compared to control. By blocking the function of the IGF-1 receptor, the phosphorylation of the insulin receptor substrate 1 is inhibited.

[2] = tested on: MAPK (Erk1/2); assay: Inhibition of the phosphorylation of MAPK in DU-145 cells (immunoblotting for phospho-MAPK); assay type: cell-based; conditions: DU-145 cells (prostate cancer), incubated over night in serum free medium, IGF1 50 nM for 15 minutes
Protocol: DU-145 cells (prostate cancer) were incubated over night with compound 15 in serum free medium. After stimulation for 15 minutes with IGF1 (50 nM), the cells were lyzed and the lysates analysed by immunoblotting for phospho-MAPK.

[3] = molecular target: T1, IGF-1 receptor (Homo sapiens, UniProt P08069); assay: Inhibition of the phosphorylation of the IGF-1 receptor in MCF-7 cells (immunoblotting for phospho-IGF-1R Y1135/1136); assay type: cell-based; conditions: MCF-7 cells serum starved 20 hours, treated 3 hours, stimulated with 10 nM IGF-1 for 5 minutes
T1 construct: endogenous in cells; host or cells: MCF-7
T1 sequence (P08069 741-1367 limits assumed): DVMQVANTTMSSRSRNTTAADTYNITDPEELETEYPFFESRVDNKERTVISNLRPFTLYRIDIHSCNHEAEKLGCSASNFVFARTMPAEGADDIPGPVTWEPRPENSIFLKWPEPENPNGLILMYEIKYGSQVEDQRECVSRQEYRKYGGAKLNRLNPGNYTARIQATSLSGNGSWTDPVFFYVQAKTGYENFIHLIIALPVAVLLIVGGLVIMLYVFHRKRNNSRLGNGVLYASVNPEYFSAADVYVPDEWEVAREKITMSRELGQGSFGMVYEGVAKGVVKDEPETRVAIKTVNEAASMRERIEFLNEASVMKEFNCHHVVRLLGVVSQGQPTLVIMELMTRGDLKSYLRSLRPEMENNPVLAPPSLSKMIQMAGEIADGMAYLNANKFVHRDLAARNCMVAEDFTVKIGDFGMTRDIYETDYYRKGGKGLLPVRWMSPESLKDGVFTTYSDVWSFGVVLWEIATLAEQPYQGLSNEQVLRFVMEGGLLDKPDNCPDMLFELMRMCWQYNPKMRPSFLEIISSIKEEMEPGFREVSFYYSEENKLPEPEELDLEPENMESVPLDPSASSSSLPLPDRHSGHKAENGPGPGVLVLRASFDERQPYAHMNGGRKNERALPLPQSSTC
T1 sequence (P08069 31-736 limits assumed): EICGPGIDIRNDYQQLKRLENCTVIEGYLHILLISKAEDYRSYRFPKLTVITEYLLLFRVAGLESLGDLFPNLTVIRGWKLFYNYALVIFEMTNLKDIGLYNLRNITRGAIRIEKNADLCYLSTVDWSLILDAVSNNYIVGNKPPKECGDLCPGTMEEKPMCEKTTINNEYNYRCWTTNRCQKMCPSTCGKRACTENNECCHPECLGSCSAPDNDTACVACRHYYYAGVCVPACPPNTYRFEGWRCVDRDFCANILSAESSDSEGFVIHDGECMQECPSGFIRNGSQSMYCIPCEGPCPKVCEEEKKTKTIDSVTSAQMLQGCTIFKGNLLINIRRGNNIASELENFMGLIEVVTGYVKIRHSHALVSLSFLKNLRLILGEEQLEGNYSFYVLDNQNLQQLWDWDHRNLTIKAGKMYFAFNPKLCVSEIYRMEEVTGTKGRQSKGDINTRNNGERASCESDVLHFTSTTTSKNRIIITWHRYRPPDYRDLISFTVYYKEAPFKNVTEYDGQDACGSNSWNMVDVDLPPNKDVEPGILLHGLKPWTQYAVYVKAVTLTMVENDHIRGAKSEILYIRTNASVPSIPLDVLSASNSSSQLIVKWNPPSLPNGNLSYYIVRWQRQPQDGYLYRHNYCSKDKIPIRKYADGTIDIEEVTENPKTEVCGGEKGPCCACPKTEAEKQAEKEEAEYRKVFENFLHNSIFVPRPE
Protocol: MCF-7 cells were serum starved for 20 hours, treated with compound 15 for 3 hours and finally stimulated with 10 nM IGF-1 for 5 minutes. The cells were lyzed and the lysates analysed by SDS-PAGE and immunoblotting for phospho-IGF-1R is (Y1135/1136).

| SMILES | IC50 [2] | melting point | also measured |
| --- | --- | --- | --- |
| COc1ccc2c(c1O)CN(C)C(=O)C2c1cc(OC)c(OC)c(OC)c1 (racemic) [racemic compound 15, 2-methyl-4-(3,4,5-trimethoxyphenyl)-8-hydroxy-7-methoxy-1,4-dihydro-3(2H)-isoquinolinone] | – | – | lowering of the amount of phosphorylated IRS-1 compared to control [1]: 20% |
| COc1cc([C@@H]2c3cc4c(cc3[C@H](O)[C@H]3COC(=O)[C@@H]23)OCO4)cc(OC)c1OC [Picropodophyllin, reference compound] | ~5000 nM | – | – |
| COc1ccc2c(c1O)CN(C)C(=O)C2c1cc(OC)c(OC)c(OC)c1 (single isomer, unassigned; (+)) [Compound 15, (+)-2-methyl-4-(3,4,5-trimethoxyphenyl)-8-hydroxy-7-methoxy-1,4-dihydro-3(2H)-isoquinolinone] | ~300 nM | – | IC50 [3]: ~1000 nM |
| COc1cc(C2C(=O)N(C)Cc3cc4c(cc32)OCCO4)cc(OC)c1OC (stereo not shown) [Compound 9, 2-methyl-4-(3,4,5-trimethoxyphenyl)-6,7-ethylenedioxy-1,4-dihydro-3(2H)-isoquinolinone] | – | 148 to 149 °C | – |
| COc1cc(OC)cc(C2C(=O)N(C)Cc3cc(OC)ccc32)c1 (stereo not shown) [Compound 13, 2-methyl-4-(3,5-dimethoxyphenyl)-7-methoxy-1,4-dihydro-3(2H)-isoquinolinone] | – | 137 to 139 °C | – |
| COc1ccc2c(c1)CN(N)C(=O)C2c1cc(OC)c(OC)c(OC)c1.Cl (stereo not shown) | – | 164 to 167 °C | – |
